US20240009269A1 (priority 2020, published 2024)

Legend:
[1] = Estimated systemic exposure after intra-arterial injection; type: in vivo, mouse
[2] = Solubility stated in text; type: physicochemical; settings: vs 1-10 μM
[3] = test system: tissue-engineered dhBMECs microvessels; experiment: BBB opening in tissue-engineered BBB microvessels (500 kDa dextran leakage); type: cell-based, human
Protocol: Three-dimensional blood-brain barrier microvessels were fabricated as previously reported (FIGS. 10A and 10B) [Linville, R. M., et al., Biomaterials, 2019. 190-191: p. 24-37] 150 μm diameter and 1 cm long channels were patterned in 7 mg mL^−1 type I collagen (Corning) using nitinol wire (Malin Co.) housed within polydimethylsiloxane (PDMS; Dow Corning). Channels were cross-linked by incubation in 20 mM genipin (Wako Biosciences) for 2 hours to increase cell adhesion. 2dhBMECs were suspended in BBB induction medium at a concentration of 5×10^6 cells mL^−1 and seeded into channels. Microvessels were perfused using BBB induction medium for 24 hours and then switched to BBB maintenance medium. During cell seeding and the first day of perfusion, 10 μM ROCK inhibitor Y27632 (ATCC) was supplemented to increase adhesion. An average shear stress of ˜2 dyn cm^−2 was maintained with a reservoir height difference (Δh) of 3 cm, corresponding to a volumetric flow rate of ˜250 μL h^−1 (FIG. 11D). This shear stress was estimated from the Poiseuille equation: τ=μQ)/2πd3 where μ is the media dynamic viscosity, Q is the volumetric flow rate, and d is the microvessel diameter.
Live-cell imaging was conducted to study dynamic changes in in vitro BBB permeability and microvessel structure. Microvessels were imaged using a 10×objective equipped on an inverted microscope (Nikon Eclipse TiE) maintained at 37° C. and 5% CO2 (FIG. S2C). Epifluorescence illumination was provided by an X-Cite 120LEDBoost (Excelitas Technologies). Phase contrast and fluorescence images were acquired every two minutes with the focal plane set to the microvessel midplane. The entire image collected consists of ten adjacent imaging frames. […] A dextran solute panel comprised of 200 μM Cascade Blue-conjugated 3 kDa dextran (Cat. No. D7132. Thermo Fisher Scientific), 16 μM Alexa Fluor647-conjugated 10 kDa dextran (Cat. No. D22914, Thermo Fisher Scientific), and 1.2 μM fluorescein-conjugated 500 kDa dextran (Cat. No. D7136, Thermo Fisher Scientific) was prepared in BBB maintenance medium. Fluorophores were independently excited and the respective emissions were collected using: Nikon UV-2E/C for 3 kDa dextran (50 ms exposure), Chroma 41008 for 10 kDa dextran (20 ms exposure), and Nikon B-2E/C for 500 kDa dextran (50 ms exposure).
Image processing was performed using ImageJ (NIH) to quantify BBB opening (FIGS. 11A-11D). First, images were cropped to a standard size of 6 mm×0.6 mm. To determine the spatial heterogeneity of BBB permeability, microvessels were sectioned into 10 regions of interest (ROIs), each a 0.6 mm×0.6 mm square (FIG. 11A). For each ROI, the integrated pixel density was plotted over time (FIG. 11A). The permeability (cm s^−1) was calculated using P=(r/2)(1/ΔI)(dI/dt), where r is the vessel radius, ΔI is the increase in fluorescence intensity upon perfusion of the fluorophore, and (dI/dt) is the rate of increase in fluorescence intensity as solute exits into the gel. […] To visually display permeability dynamics, heatmaps were generated from 90 instantaneous permeability values across the 10 ROIs (x-axis) and nine 10-minute periods (y-axis). […] 28(1): p. 41-51 in ImageJ (FIG. 11B). Under baseline conditions, thresholding results in the lumen designated as white (1) and extracellular matrix (ECM) as black (0). […] From binarized images, individual focal leaks were manually counted over time. Leaks emerging from the sides of the image frame were not counted. To quantify the duration of a BBB opening effect, we identified the time at which the last focal leak appeared and termed the focal leak reversibility time constant (τfocal leaks).

mouse brain = experiment: Safety of BBBO in mice (neurological deficits, MRI, histology); type: in vivo
Protocol: 273-285] in ImageJ. […] Subsequently, animals were sacrificed for further histological assessment.
In brief, each post-contrast image was first fitted into two Gaussian distributions, and the cutoff of signal intensity was determined. Data analysis and calculation of area fraction was performed using custom-written MATLAB scripts. 24 hours and 7 days after melittin treatment, animals were trans-cardially perfused with 5% sucrose in deionized water and then 4% paraformaldehyde in phosphate buffered saline. The brains were cryopreserved in 30% sucrose and cryo-sectioned in 30 μm slices. Primary antibodies used in the study are described in Table 2. Goat anti-rabbit Alexa Fluor-488 or Alexa Fluor-594 (1:250, Life Technologies) were used as secondary antibodies for fluorescence assessment using an inverted microscope (Zeiss, Axio Observer Z1). For demyelination assessment, eriochrome cyanine R staining was performed as described previously [Golubczyk, D., et al., Mol Neurobiol, 2019. 56(8): p. 5740-5748] with assessment using bright-field microscopy. Quantitation of immunohistochemistry (based on relative fluorescence intensity) and MRI analysis (based on intensity) were performed using Image J. For each mouse, three ROIs of the ipsilateral and contralateral BBBO regions were drawn, respectively.

CC[C@H](C)[C@H](NC(=O)CN)C(=O)NCC(=O)N[C@@H](C)C(=O)N[C@H](C(=O)N[C@@H](CC(C)C)C(=O)N[C@@H](CCCCN)C(=O)N[C@H](C(=O)N[C@@H](CC(C)C)C(=O)N[C@H](C(=O)N[C@H](C(=O)NCC(=O)N[C@@H](CC(C)C)C(=O)N1CCC[C@H]1C(=O)N[C@@H](C)C(=O)N[C@@H](CC(C)C)C(=O)N[C@H](C(=O)N[C@@H](CO)C(=O)N[C@@H](Cc1c[nH]c2ccccc12)C(=O)N[C@H](C(=O)N[C@@H](CCCCN)C(=O)N[C@@H](CCCNC(=N)N)C(=O)N[C@@H](CCCCN)C(=O)N[C@@H](CCCNC(=N)N)C(=O)N[C@@H](CCC(N)=O)C(=O)N[C@@H](CCC(N)=O)C(N)=O)[C@@H](C)CC)[C@@H](C)CC)[C@@H](C)O)[C@@H](C)O)C(C)C)C(C)C [melittin]
systemic dose, fold lower than the LD50 ([1]; 3 μM·min melittin, mouse weight of 20 g assumed): ~50 fold | melittin concentration after dilution in the bloodstream ([1]; 3 μM·min, 150 μL injection diluted into 1.2 mL of whole blood (assumed)): 0.33 µM | reduction of melittin concentration upon exiting the brain ([1]; dilution in the bloodstream assumed): ~10 fold | solubility relative to the concentrations for membrane activity [2]: more than 30 fold | increase in delivery of 500 kDa dextran across the blood-brain barrier in vitro [3]: ≤ 25 fold | 500 kDa dextran permeability ([3]; 5 μM melittin for 90 minutes, continuous): high 500 kDa dextran permeability | average permeability of 500 kDa dextran, fold higher than baseline ([3]; 50 μM·minute dose): ~25 fold | focal leak density relative to mannitol ([3]; above threshold doses, retrospective comparison): 3 fold | focal leaks 24 hours after melittin exposure ([3]; all doses, 3-100 μM·minute, 500 kDa dextran): focal leaks were not observed | barrier function after 24 hours ([3]; high doses): barrier function was regained 24 hours later | BBBO ([3]; high doses (10-minute 10 μM)): induced sustained BBBO, but did not recover during the 90 minutes of imaging | BBBO ([3]; intermediate doses (5-minute 5 μM)): induced BBBO and resulted in recovery during the 90 minute imaging period | character of focal leaks ([3]; intermediate doses (20-50 μM·minute)): transient | BBBO ([3]; low doses (2-minute 1.5 μM)): did not induce BBBO | long-term survival (30 days) (mouse brain; 3 μM·minute): reached that endpoint without complications | mortality (mouse brain; 3 μM·minute, 11 mice): One mouse in this group died within 12 hours | neurological deficits (paralysis, seizure, or rotation) (mouse brain; 3 μM·minute, 11 mice): all animals except one woke up from anesthesia without apparent neurological deficits | GFAP, Iba1, NeuN, and caspase-3 intensities between hemispheres (mouse brain; 3 μM·minute, 24 hours): not statistically different | MRI (T2, SWI) (mouse brain; 3 μM·minute, 24 hours): no evidence of edema or inflammation on T2 scans or micro-hemorrhages on susceptibility weighted imaging (SWI) scans | GFAP and Iba1 intensity, ipsilateral vs contralateral (mouse brain; 3 μM·minute, 7 days): no statistically significant differences | MRI (mouse brain; 3 μM·minute, 7 days): no abnormalities were detected | NeuN and caspase-3 intensity in the ipsilateral hemisphere (mouse brain; 3 μM·minute, 7 days): no statistically significant change | eriochrome cyanine staining (myelin) (mouse brain; 3 μM·minute, 7 days, hippocampus): normal myelin | behavior after dosing (mouse brain; 5 μM·minute): mice displayed rotational behavior indicating neurological damage
